Earlier results, collected in patent publication US20160376245A1, “IMPURITY OF FAMOTIDINE” (GAVIS PHARMACEUTICALS, priority 2015, published 2016).
Where two headings read alike, the source gives them in different places.

- solubility (in ethanol): practically insoluble
- solubility (in glacial acetic acid): freely soluble
- solubility (in methanol): slightly soluble
- solubility (in water): very slightly soluble
Structure (SMILES): NC(N)=Nc1nc(CSCCC(N)=NS(N)(=O)=O)cs1 [Famotidine, N-(aminosulfonyl)-3-[[[2-[(diaminomethylene)amino]-4-thiazolyl]methyl]thio] propanimidamide]
